Assay results from patent US20250115595A1, “INHIBITORS OF HYPOXIA-INDUCIBLE FACTORS” (The Johns Hopkins University, priority 2021, published 2025).

How the values were obtained:
[1] = Mouse pharmacokinetics in neurosensory retina after intraocular injection; format: in vivo
Procedure: Pharmacokinetic analysis of 32-134D in the neurosensory retina following intraocular administration was determined by liquid chromatography and tandem mass spectrometry (LC-MS/MS) to quantify the concentration of 32-134D in retinal tissue over 14 days following a single 70-ng intraocular injection of 32-134D (see Methods of all parameters). […] The total exposure (area under the curve or AUClast) was 72.3 nmol*day/g.
Mouse pharmacokinetics: C57BL/6 mice were administered 32-134D at 70 ng or 280 ng as a single intraocular injection. Mice (at least 3 mice per time point) were euthanized at 1, 3, 7, or 14 days after injection. For the 280-ng dose, a 10-day time point was added. 32-134D was quantified in retina by LC-MS/MS as previously described (S. Salman et al., 2022, J Clin Invest 132) with the following modifications. Retina tissue samples were homogenized in […] of 1×PBS (pH 7.4) before extraction. The standard curve and quality control samples were prepared in 1×PBS as a surrogate matrix. Retina tissue samples were then quantitated in nmol/g as: nominal concentration (nM)×initial dilution ([tissue weight (mg)+volume of solvent (μl)]/tissue weight (mg)). For all samples <10 nM, the value was reported as below the limits of detection. If at least on samples was >10 nM and one was <10 nM, then one half that value (5 nM) was imputed to calculate the concentration for that specimen and utilized in the average and standard deviation calculations.
Pharmacokinetic parameters: These were calculated from mean concentration-time data using noncompartmental methods in Phoenix WinNonlin version 8.3 (Certara, Princeton, NJ, USA). The Cmax and time to Cmax (Tmax) were the observed values. The AUClast was calculated using the log-linear trapezoidal method to the last quantifiable time point. The λz was determined from at least 3 points on the slope of the terminal phase of the concentration-time profile using a 1/y2 weighting factor. The T1/2 was determined by dividing 0.693 by […]. T1/2 was not reported if the correlation coefficient (r2) for λz was less than 0.9.
Bioanalytical method for mouse pharmacokinetics: Retina tissue samples were homogenized in 200 μL of 1×PBS (pH 7.4) before extraction. The standard curve and quality control samples were prepared in 1×PBS as a surrogate matrix for all matrices. Tissue homogenate or PBS (25 μL) was added to a borosilicate glass test tube and mixed with 150 μL of acetonitrile containing the internal standard (1 ng/mL of EXP-3179). For blank samples, 150 μL of acetonitrile was added without internal standard. Samples were vortex-mixed and centrifuged (1200×g for 5 minutes at ambient temperature) and transferred to an autosampler vial. […] The column effluent was monitored using an AB Sciex Triple Quadrupole 5500 mass spectrometer. […]

C57BL/6 mice = assay: Ischemia/reperfusion (I/R) model of vascular permeability; format: in vivo, mouse; details: 5 daily IP injections 40 mg/kg
Procedure: The ability of 32-134D to inhibit vascular permeability in retinal vein occlusion patients was evaluated using the ischemia/reperfusion (I/R) model for vascular permeability in ischemic retinal disease. Transient ischemia was induced in the left eye in 8-to-10-week-old male C57BL/6 mice; the right eye was used as the non-I/R control. Following ischemia, mice were treated with 5 daily IP injections of vehicle control or 32-134D at 40 mg/kg. 24 hours after the fifth IP injection, mice were euthanized, Evans blue perfusion was performed, and retina flat mounts were examined for vascular leakage. […] There was no difference between non-/R (healthy) eyes and I/R eyes treated with 32-134D.
Vascular permeability by Evans blue tracer method: Mice were anesthetized with a mixture of ketamine (50 mg/kg) and xylazine (5 mg/kg) and subjected to Evans blue (Sigma) (50 mg/kg) perfusion by penile vein injection. […] Images were captured by Zeiss fluorescent microscope or confocal microscopy and fluorescence quantified by image J software (NIH). […] Blinded quantification of the number of leaking vessels was performed by manual counting major leakage from capillaries from retinas of each group. Non-capillary artifactual Evans blue or FITC-dextran leakage due to flat mount processing as well as minor leakages were not included in the quantitation. […] For quantification, high magnifications (20×) images were taken. […]

Brc1ccc2c(-c3csc(-c4c[nH]c5c(Br)cccc45)n3)c[nH]c2c1 [Compound 32-134D, 4-(6-bromo-1H-indol-3-yl)-2-(7-bromo-1H-indol-3-yl)thiazole]
time retina concentration exceeded in vitro IC50 of 3.5 μM ([1]; single 70-ng intraocular injection): 5.25 days
total exposure (AUClast) in neurosensory retina ([1]; single 70-ng intraocular injection, 14 days): 72.3 nmol·days/g
terminal half-life (T1/2) in retina ([1]; single intraocular injection 280 ng): 43.2 h
AUClast in neurosensory retina ([1]; single intraocular injection 280 ng, through 14 days): 147 nmol·days/g
vascular leakage in I/R eyes (Evans blue) (C57BL/6 mice): significant reduction in vascular leakage
